Tests used:
PTPN2 enzyme = target: T1, PTPN2 enzyme (Homo sapiens, UniProt P17706); experiment: PhosphoSens PTPN2 biochemical assay; settings: substrate AQT0264 20 μM, room temperature; read-out: PTPN2 BCHEM IC50
T1 sequence (P17706 1-415): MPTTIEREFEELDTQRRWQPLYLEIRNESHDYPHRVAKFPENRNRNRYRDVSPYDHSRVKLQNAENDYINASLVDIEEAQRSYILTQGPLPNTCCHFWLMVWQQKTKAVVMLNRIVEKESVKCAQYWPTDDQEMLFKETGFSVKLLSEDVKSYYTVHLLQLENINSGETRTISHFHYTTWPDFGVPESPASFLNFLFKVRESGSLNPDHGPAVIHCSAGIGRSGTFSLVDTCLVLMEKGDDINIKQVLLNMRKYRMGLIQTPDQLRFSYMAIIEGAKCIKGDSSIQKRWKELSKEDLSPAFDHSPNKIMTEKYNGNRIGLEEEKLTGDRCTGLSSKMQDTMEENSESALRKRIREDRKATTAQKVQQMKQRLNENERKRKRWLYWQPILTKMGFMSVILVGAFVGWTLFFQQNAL
Description: A PhosphoSens® kinase assay was performed as described by the vendor (AssayQuant Technologies, Marlborough, MA). Briefly, 1000×solutions of compounds were prepared in DMSO via serial dilution of the 10 mM DMSO stocks using 3-fold intervals in a 384-well reagent plate. 50 nL of the compound dilution series was then added to the corresponding wells of a 384-well assay plate. […] of 1.25×substrate (AQT0264) in 1× assay buffer (50 mM HEPES pH 7.5, 500 μM EGTA, […] MgCl2, 0.01% Brij-35, 1% Glycerol, 1 mM DTT, and 0.2 mg/mL BSA) was transferred to each well of the assay plate to achieve a final substrate concentration of 20 μM. Finally, […] of 5×PTPN2 enzyme stock was added to each well of the assay plate for a final enzyme concentration of […]. Reaction progress curves were collected by sampling fluorescence intensity at the excitation wavelength 360 nm (λex360) and emission wavelength 480 nm (λem480) every 71 seconds for one hour using a Synergy H4 plate reader (BioTek Instruments/Agilent Technologies, Winooski, VT) at room temperature.

[1] = test system: phosphorylated STAT1 protein levels in B16-F10 cells; experiment: Phospho-STAT1 (Tyr701) HTRF assay in IFN-gamma treated B16-F10 cells; format: cell-based; settings: mouse IFN-gamma 100 ng/mL, 1 hour, read-out: pSTAT1 HTRF B16 EC50
Description: B16-F10 cells (ATCC, Manassas, VA, #CRL-6475) were cultured in DMEM growth medium (ThermoFisher Scientific, Waltham, MA, #11995-040) supplemented with 10% heat inactivated FBS (ThermoFisher Scientific, #16140-071) and 1% pen/strep (ThermoFisher Scientific, #15140-122). The cells were seeded into a white opaque 384-well tissue culture treated microplate (PerkinElmer, Waltham, MA, #6007688) at a density of 10,000 cells/well in 20 uL total volume and incubated overnight at 37 C and 5% CO2. 30 nL of compounds dissolved in DMSO were then transferred from a source plate into target wells with the Echo650 acoustic liquid handler (Beckman Coulter, Indianapolis, IN). Negative control wells received 30 nL of DMSO only (0.15% final concentration). Plates were returned to the incubator for 1 hour and then cells treated with either 5 uL of growth medium or 5 uL of growth medium containing 500 ng/mL of recombinant mouse IFN-gamma protein (R&D Systems, Minneapolis, MN, #485-MI/CF, 100 ng/mL final concentration) using the Assist automated pipetting platform (INTEGRA Biosciences, Hudson, NH). Plates were incubated at 37 C for 1 hour and assayed for phosphorylated STAT1 protein levels with the phospho-STAT1 (Tyr701) HTRF kit (Cisbio, Bedford, MA, #63ADK026PEH) according to manufacturer's instructions.

| IC50 (PTPN2 enzyme) | EC50 [1] | SMILES |
| --- | --- | --- |
| 2750 nM | – | CC(C)CCN1CCC(c2cc(O)c(N3CC(=O)NS3(=O)=O)c(F)c2)CC1 [EXAMPLE 6, 5-[2-fluoro-6-hydroxy-4-(1-isopentyl-4-piperidyl)phenyl]-1,1-dioxo-1,2,5-thiadiazolidin-3-one] |
| 83 nM | – | CC(=O)N1CCN(Cc2cc(O)c(N3CC(=O)NS3(=O)=O)c(F)c2)CC1 [EXAMPLE 38, 5-(4-((4-acetylpiperazin-1-yl)methyl)-2-fluoro-6-hydroxyphenyl)-1,2,5-thiadiazolidin-3-one 1,1-dioxide] |
| 331 nM | 13100 nM | CC(C)OC1CCN(Cc2cc(O)c(N3CC(=O)NS3(=O)=O)c(F)c2)CC1 [EXAMPLE 54, 5-[2-fluoro-6-hydroxy-4-[(4-isopropoxy-1-piperidyl)methyl]phenyl]-1,1-dioxo-1,2,5-thiadiazolidin-3-one] |
| 401 nM | 11300 nM | COCCC1CCN(Cc2cc(O)c(N3CC(=O)NS3(=O)=O)c(F)c2)CC1 [EXAMPLE 55, 5-[2-fluoro-6-hydroxy-4-[[4-(2-methoxyethyl)-1-piperidyl]methyl]phenyl]-1,1-dioxo-1,2,5-thiadiazolidin-3-one] |
| 381 nM | 10900 nM | CCCCC1CCN(Cc2cc(O)c(N3CC(=O)NS3(=O)=O)c(F)c2)CC1 [EXAMPLE 57, 5-[4-[(4-butyl-1-piperidyl)methyl]-2-fluoro-6-hydroxy-phenyl]-1,1-dioxo-1,2,5-thiadiazolidin-3-one] |
| – | ≥ 15000 nM | O=C1CN(c2c(O)ccc(CN3CCC(F)CC3)c2F)S(=O)(=O)N1 [EXAMPLE 98, 5-(2-fluoro-3-((4-fluoropiperidin-1-yl)methyl)-6-hydroxyphenyl)-1,2,5-thiadiazolidin-3-one 1,1-dioxide] |
| – | ≥ 15000 nM | CN(C)C1CCN(Cc2ccc(O)c(N3CC(=O)NS3(=O)=O)c2F)CC1 [EXAMPLE 102, 5-(3-((4-(dimethylamino)piperidin-1-yl)methyl)-2-fluoro-6-hydroxyphenyl)-1,2,5-thiadiazolidin-3-one 1,1-dioxide] |
| – | ≥ 15000 nM | CC(C)CCN1CCN(Cc2ccc(O)c(N3CC(=O)NS3(=O)=O)c2F)CC1 [EXAMPLE 104, 5-[2-fluoro-6-hydroxy-3-[(4-isopentylpiperazin-1-yl)methyl]phenyl]-1,1-dioxo-1,2,5-thiadiazolidin-3-one] |

More lines, now with the values behind:

| SMILES | IC50 (PTPN2 enzyme) | EC50 [1] |
| --- | --- | --- |
| O=C1CN(c2c(O)cc(C3CCNCC3)cc2F)S(=O)(=O)N1 [EXAMPLE 2, 5-[2-fluoro-6-hydroxy-4-(4-piperidyl)phenyl]-1,1-dioxo-1,2,5-thiadiazolidin-3-one] | 1300 nM | – |
| CN1CCCC(c2cc(O)c(N3CC(=O)NS3(=O)=O)c(F)c2)C1 (stereo not shown) [EXAMPLE 3, 5-(2-fluoro-6-hydroxy-4-(1-methylpiperidin-3-yl)phenyl)-1,2,5-thiadiazolidin-3-one 1,1-dioxide] | 4730 nM | – |
| COc1ncccc1-c1cc(O)c(N2CC(=O)NS2(=O)=O)c(F)c1 [EXAMPLE 25, 5-[2-fluoro-6-hydroxy-4-(2-methoxy-3-pyridyl)phenyl]-1,1-dioxo-1,2,5-thiadiazolidin-3-one] | 266 nM | 9740 nM |
| N#Cc1cc(CNCc2cc(O)c(N3CC(=O)NS3(=O)=O)c(F)c2)ccc1F [EXAMPLE 45, 2-fluoro-5-[[[3-fluoro-5-hydroxy-4-(1,1,4-trioxo-1,2,5-thiadiazolidin-2-yl)phenyl]methylamino]methyl]benzonitrile] | 70 nM | 1870 nM |
| CN(Cc1cc(O)c(N2CC(=O)NS2(=O)=O)c(F)c1)C1CCC(C)(C)CC1 [EXAMPLE 77, 5-[4-[[(4,4-dimethylcyclohexyl)-methyl-amino]methyl]-2-fluoro-6-hydroxy-phenyl]-1,1-dioxo-1,2,5-thiadiazolidin-3-one] | – | ≥ 15000 nM |
| O=C1CN(c2c(O)cc(NC3CCNCC3)cc2F)S(=O)(=O)N1 [EXAMPLE 88, 5-(2-fluoro-6-hydroxy-4-(piperidin-4-ylamino)phenyl)-1,2,5-thiadiazolidin-3-one 1,1-dioxide] | 1200 nM | – |

Reference: patent US12162848B2, “Inhibitors of protein tyrosine phosphatase, compositions, and methods of use” (BRISTOL-MYERS SQUIBB COMPANY, priority 2022, dated 2024)
